For 20 compounds, IC50 and Activity results are on record in ChEMBL document CHEMBL4431319, “Design and synthesis of 4'-O-alkylamino-tethered-benzylideneindolin-2-ones as potent cytotoxic and apoptosis inducing agents” (Bioorg Med Chem Lett, 2016).

What is called IC50 is the concentration needed to halve the response being measured. Lower therefore signals inhibition by little substance.

Calls of active or inactive are those of the source. The calls are words filed in the database; no cut-off is given here. A value given as a limit tells only on which side of the number the result lay.

Test [1] deals with A549. Put plainly: Cytotoxicity against human A549 cells after 48 hrs by MTT assay. Particulars: A549, 48 h. The class given is functional, cell-based. (Tetrazolium dyes change colour on reduction, which living cells bring about.)
Test [2] has as its system DU-145. Put plainly: Cytotoxicity against human DU145 cells after 48 hrs by MTT assay. Particulars: DU-145, 48 h. The class given is functional, cell-based.
The subject of test [3] is BT-549. Put plainly: Cytotoxicity against human BT549 cells after 48 hrs by MTT assay. The class given is functional, cell-based. Particulars: BT-549, 48 h.
Test [4] has as its system MDA-MB-231. Description: Cytotoxicity against human MDA-MB-231 cells after 48 hrs by MTT assay. The class given is functional, cell-based. Particulars: MDA-MB-231, 48 h.
Test [5] has as its system MCF-10A. Put plainly: Cytotoxicity against human MCF10A cells after 48 hrs by MTT assay. Type of test: cell-based.
The subject of test [6] is MDA-MB-231. Description: Induction of nuclear shrinkage in human MDA-MB-231 cells at IC50 after 24 to 48 hrs by phase contrast microscopic analysis. Type of test: functional, cell-based.
The subject of test [7] is MDA-MB-231. Put plainly: Induction of detachment of human MDA-MB-231 cells at compound IC50 after 24 to 48 hrs by phase contrast microscopic analysis. Type of test: functional, cell-based.
Test [8] relates to MDA-MB-231. Description: Antimigratory activity in human MDA-MB-231 cells at compound IC50 after 24 to 48 hrs by wound healing assay relative to control. The class given is functional, cell-based.
The test system of test [9] is MDA-MB-231. Put plainly: Disruption of F-actin-mediated stress fiber formation around nucleus in human MDA-MB-231 cells at compound IC50 after 12 hrs by rhodamine-phalloidin/[…] staining-based confocal microscopic analysis. Type of test: functional, cell-based.
The test system of test [10] is MDA-MB-231. Put plainly: Induction of apoptosis in human MDA-MB-231 cells assessed as fragmented nuclei at compound IC50 after 24 hrs by […] staining-based fluorescence microscopic analysis. Type of test: functional, cell-based.
The test system of test [11] is MDA-MB-231. Put plainly: Induction of apoptosis in human MDA-MB-231 cells assessed as chromatin condensation at compound IC50 after 24 hrs by […] staining-based fluorescence microscopic analysis. The class given is functional, cell-based.
Test [12] deals with MDA-MB-231. Put plainly: Induction of apoptosis in human MDA-MB-231 cells assessed as appearance of horseshoe shaped nuclei at compound IC50 after 24 hrs by […] staining-based fluorescence microscopic analysis. The class given is functional, cell-based.
Test [13] relates to MDA-MB-231. Put plainly: Disruption of mitochondrial membrane potential in human MDA-MB-231 cells at compound IC50 after 24 hrs by rhodamine 123 staining-based spectrofluorometric analysis. Type of test: functional.
For test [14], the system named is MDA-MB-231. Put plainly: Induction of ROS generation in human MDA-MB-231 cells at compound IC50 after 24 hrs by DCFDA staining-based spectrofluorometric analysis relative to control. The class given is functional, cell-based.
Test [15] concerns MDA-MB-231. Description: Induction of apoptosis in human MDA-MB-231 cells assessed as pyknosis at compound IC50 after 24 hrs by […] staining-based fluorescence microscopic analysis. Type of test: functional, cell-based.
The test system of test [16] is MDA-MB-231. Description: Induction of cell cycle arrest in human MDA-MB-231 cells assessed as accumulation at G0/G1 phase at 2.5 uM after 24 hrs by propidium iodide staining based flow cytometry (reference value: 55.02%). The class given is functional. A general note: Flow cytometry measures light scatter and fluorescence of single cells or particles in a stream.

Test [17] deals with MDA-MB-231. Description: Induction of cell cycle arrest in human MDA-MB-231 cells assessed as accumulation at […] at 2.5 uM after 24 hrs by propidium iodide staining based flow cytometry (reference value: 26.12%). Type of test: functional.
Test [18] concerns MDA-MB-231. Description: Induction of cell cycle arrest in human MDA-MB-231 cells assessed as accumulation at G2/M phase at 2.5 uM after 24 hrs by propidium iodide staining based flow cytometry (reference value: 18.86%). The class given is functional.
The test system of test [19] is MDA-MB-231. Description: Induction of cell cycle arrest in human MDA-MB-231 cells assessed as accumulation at G0/G1 phase at 5 uM after 24 hrs by propidium iodide staining based flow cytometry (reference value: 55.02%). Type of test: functional.
Test [20] has as its system MDA-MB-231. Description: Induction of cell cycle arrest in human MDA-MB-231 cells assessed as accumulation at […] at 5 uM after 24 hrs by propidium iodide staining based flow cytometry (reference value: 26.12%). Type of test: functional.
For test [21], the system named is MDA-MB-231. Put plainly: Induction of cell cycle arrest in human MDA-MB-231 cells assessed as accumulation at G2/M phase at 5 uM after 24 hrs by propidium iodide staining based flow cytometry (reference value: 18.86%). The class given is functional.
In test [22] the test system is MDA-MB-231. Description: Induction of cell cycle arrest in human MDA-MB-231 cells assessed as accumulation at G0/G1 phase at 10 uM after 24 hrs by propidium iodide staining based flow cytometry (reference value: 55.02%). Type of test: functional.
For test [23], the system named is MDA-MB-231. Put plainly: Induction of cell cycle arrest in human MDA-MB-231 cells assessed as accumulation at […] at 10 uM after 24 hrs by propidium iodide staining based flow cytometry (reference value: 26.12%). The class given is functional.
Test [24] deals with MDA-MB-231. Description: Induction of cell cycle arrest in human MDA-MB-231 cells assessed as accumulation at G2/M phase at 10 uM after 24 hrs by propidium iodide staining based flow cytometry (reference value: 18.86%). Type of test: functional.

For `COc1cc(/C=C2\C(=O)Nc3ccccc32)ccc1OCCCN1CCc2ccccc21`, the half-maximal inhibitory concentration (IC50) in test [1], in [2], in test [3] and in test [4] was above 20 µM throughout.

Take `COc1cc(/C=C2\C(=O)Nc3ccc(Br)cc32)ccc1OCCN1CCOCC1`: the half-inhibitory concentration (IC50) in test [1], in test [2], in [3] and in [4] was above 20 µM each time.

In the case of `COc1cc(/C=C2\C(=O)Nc3ccccc32)ccc1OCCCN1CCN(C)CC1`, the IC50 in test [1] was 3.35 µM; in test [2], 2.23 µM; in [3], 2.53 µM; in [4], 2.07 µM; in [5], above 100 µM.

Regarding `COc1cc(/C=C2\C(=O)Nc3ccc(Cl)cc32)ccc1OCCCN1CCOCC1`, the IC50 was 5.5 µM in test [1]; 2.91 µM in [2]; 2.79 µM in test [3]; 2.51 µM in [4]; above 100 µM in test [5].

As to `COc1cc(/C=C2\C(=O)Nc3ccccc32)ccc1OCCCN1CCN(c2ccccn2)CC1`, the IC50 in test [1], in test [2], in test [3] and in test [4] was above 20 µM each time.

For the compound `COc1cc(/C=C2\C(=O)Nc3ccccc32)ccc1OCCCn1nc(C)cc1C`, the IC50 in test [1], in test [2], in test [3] and in [4] was above 20 µM throughout.

Consider `COc1cc(/C=C2\C(=O)Nc3ccc(F)cc32)ccc1OCCN1CCOCC1`, for which the half-maximal inhibitory concentration (IC50) in test [1], in test [2], in [3] and in test [4] was above 20 µM in each case.

Regarding `COc1cc(/C=C2\C(=O)Nc3ccc(C)cc32)ccc1OCCCN1CC(C)OC(C)C1` (configuration not stated), the IC50 in test [1] was above 20 µM; in test [2] it was above 20 µM; in test [3] it was above 20 µM; in test [4] it was 11.5 µM.

For the compound `COc1cc(/C=C2\C(=O)Nc3ccccc32)ccc1OCCCN1CCOCC1`, the concentration for half-maximal inhibition (IC50) in [1], in test [2], in [3] and in [4] was above 20 µM throughout.

As for `COc1cc(/C=C2\C(=O)Nc3ccc(Cl)cc32)ccc1OCCN1CCOCC1`, the concentration for half-maximal inhibition (IC50) in test [1] was determined as 14.7 µM; in test [2], 4.43 µM; in test [3], 3.52 µM; in test [4], 3.31 µM; in [5] it was 61.3 µM.

In the case of `COc1cc(/C=C2\C(=O)Nc3ccccc32)ccc1OCCCN1CC(C)OC(C)C1` (configuration not stated), the IC50 in test [1] is above 20 µM; in [2], above 20 µM; in [3], above 20 µM; in test [4], 15.2 µM.

`COc1cc(/C=C2\C(=O)Nc3ccccc32)ccc1OCCN1CCOCC1`: the concentration for half-maximal inhibition (IC50) in test [1], in test [2], in test [3] and in test [4] was above 20 µM in each case.

For the compound `COc1cc(/C=C2\C(=O)Nc3ccc(Cl)cc32)ccc1OCCCN1CCN(C)CC1`, the 50% inhibitory concentration (IC50) in test [1] was 11.3 µM; in test [2] it was 2.15 µM; in test [3], 2.17 µM; in test [4], 1.75 µM; in [5], 43.6 µM. In addition, the result in test [6], in test [7], in test [8], in test [9], in [10] and in test [11] was Active. The result in test [12], in test [14] and in test [15] was Active. In addition, the Activity in test [13] is reported as 32%.

As to `COc1cc(/C=C2\C(=O)Nc3ccccc32)ccc1OCCCN1CCN(c2ncccc2C(F)(F)F)CC1`, the 50% inhibitory concentration (IC50) in [1], in [2], in [3] and in test [4] was above 20 µM throughout.

In the case of `COc1cc(/C=C2\C(=O)Nc3ccc(Cl)cc32)ccc1OCCCN1CCN(c2ncccc2C(F)(F)F)CC1`, the IC50 in test [1] was 9.53 µM; in [2], 1.61 µM; in test [3], 1.53 µM; in test [4] it was 1.26 µM; in [5], 41.3 µM. In addition, the result in test [6], in [7], in [8], in test [9], in test [10] and in [11] was Active. In addition, the outcome in [12], in [14] and in test [15] was Active. In addition, the Activity was 68.53% in [16]; 17.93% in [17]; 13.45% in test [18]; 77.62% in test [19]; 11.74% in [20]; 10.54% in [21]. In addition, the Activity in test [22] is listed as 84.74%; in test [23] it was 5.81%; in test [24], 9.42%; in [13], 40%.

Turning to `COc1cc(/C=C2\C(=O)Nc3ccc(C)cc32)ccc1OCCCN1CCOCC1`, the IC50 in [1], in test [2], in [3] and in [4] was above 20 µM each time.

With `COc1cc(/C=C2\C(=O)Nc3ccc(C)cc32)ccc1OCCN1CCOCC1`, the 50% inhibitory concentration (IC50) in test [1] is above 20 µM; in test [2], above 20 µM; in test [3], above 20 µM; in test [4] it was 9.5 µM; in test [5], above 100 µM.

Regarding `COc1cc(/C=C2\C(=O)Nc3ccc(C)cc32)ccc1OCCCN1CCN(c2ncccc2C(F)(F)F)CC1`, the IC50 in test [1], in test [2], in [3] and in test [4] was above 20 µM throughout.

In the case of `COc1cc(/C=C2\C(=O)Nc3ccc(Cl)cc32)ccc1OCCCN1CC(C)OC(C)C1` (configuration not stated), the IC50 was found to be 6.25 µM in [1]; 2.71 µM in [2]; 2.77 µM in test [3]; 1.99 µM in test [4]; 54.6 µM in test [5]. In addition, the outcome in test [6], in test [7], in test [8], in test [9], in test [10] and in [11] was Active. The result in test [12], in test [14] and in test [15] was Active. In test [13], this compound gave an Activity of 28%.

Take `COc1cc(/C=C2\C(=O)Nc3ccc(Cl)cc32)ccc1OCCCN1CCN(c2ccccn2)CC1`: the concentration for half-maximal inhibition (IC50) in test [1] is above 20 µM; in test [2], above 20 µM; in test [3] it was above 20 µM; in test [4], 14.8 µM; in test [5], 51.3 µM.
